ChEMBL document CHEMBL1201862, “PubChem BioAssay data set” (2004)
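Method: 48-hour compound exposure of cells in 96-well plates, five concentrations, linear interpolation of endpoints. GI50 marks 50% less growth.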 Active and inactive are the calls of the source. Rule as the data show it: active = GI50 up to about 1.1 µM and inactive = higher.

Experiments:
Test in all cases: NCI-60 cell line screen, 48 h
HCT-15 = test system: HCT-15
LOX IMVI = test system: LOX IMVI
OVCAR-5 = test system: OVCAR-5
COLO 205 = test system: COLO 205
OVCAR-8 = test system: OVCAR-8
KM-20L2 = test system: KM-20L2
HL-60 = test system: HL-60
A498 = test system: A498
ACHN = test system: ACHN
SNB-75 = test system: SNB-75
SK-OV-3 = test system: SK-OV-3
SK-MEL-5 = test system: SK-MEL-5
LXFL 529 = test system: LXFL 529
Malme-3M = test system: Malme-3M
U-251 = test system: U-251
M19-MEL = test system: M19-MEL
RPMI-8226 = test system: RPMI-8226
SN12C = test system: SN12C
SNB-19 = test system: SNB-19
XF498 = test system: XF498
UACC-257 = test system: UACC-257
SF-539 = test system: SF-539
CAKI-1 = test system: CAKI-1
UACC-62 = test system: UACC-62
DMS-114 = test system: DMS-114
NCI-H23 = test system: NCI-H23
EKVX = test system: EKVX
K562 = test system: K562
KM12 = test system: KM12
OVCAR-4 = test system: OVCAR-4
HOP-18 = test system: HOP-18
IGROV-1 = test system: IGROV-1
HT-29 = test system: HT-29
SF-268 = test system: SF-268
HOP-92 = test system: HOP-92
SF-295 = test system: SF-295
SK-MEL-2 = test system: SK-MEL-2
UO-31 = test system: UO-31
M14 = test system: M14
MOLT-4 = test system: MOLT-4
786-0 = test system: 786-0
SK-MEL-28 = test system: SK-MEL-28
NCI-H522 = test system: NCI-H522
CCRF-CEM = test system: CCRF-CEM
HOP-62 = test system: HOP-62
A549 = test system: A549
DMS-273 = test system: DMS-273
DLD-1 = test system: DLD-1
RXF 393 = test system: RXF 393
SNB-78 = test system: SNB-78
OVCAR-3 = test system: OVCAR-3
NCI-H460 = test system: NCI-H460
SW-620 = test system: SW-620

Cc1cc(NS(=O)(=O)c2ccc(NC(=O)c3cccc4c(Nc5ccc(S(=O)(=O)Nc6cc(C)on6)cc5)c5ccccc5nc34)cc2)no1
GI50 (HCT-15): > 100 µM
GI50 (LOX IMVI): 30.5 µM (inactive)
GI50 (OVCAR-5): > 100 µM (inactive)
GI50 (COLO 205): 62.4 µM (inactive)
GI50 (OVCAR-8): 70.3 µM (inactive)
GI50 (KM-20L2): > 100 µM (inactive)
GI50 (HL-60): 23.7 µM (inactive)
GI50 (A498): 68.9 µM (inactive)
GI50 (ACHN): > 100 µM (inactive)
GI50 (SNB-75): 22.3 µM (inactive)
GI50 (SK-OV-3): > 100 µM (inactive)
GI50 (SK-MEL-5): 69.2 µM (inactive)
GI50 (LXFL 529): 24.7 µM (inactive)
GI50 (Malme-3M): > 100 µM (inactive)
GI50 (U-251): 30.5 µM (inactive)
GI50 (M19-MEL): 35.8 µM (inactive)
GI50 (RPMI-8226): 64.4 µM (inactive)
GI50 (SN12C): 39.4 µM (inactive)
GI50 (SNB-19): 32.7 µM (inactive)
GI50 (XF498): 42.3 µM (inactive)
GI50 (UACC-257): > 100 µM (inactive)
GI50 (SF-539): 27.4 µM (inactive)
GI50 (CAKI-1): 70.1 µM (inactive)
GI50 (UACC-62): 17.5 µM (inactive)
GI50 (DMS-114): 35.2 µM (inactive)
GI50 (NCI-H23): 44.5 µM (inactive)
GI50 (EKVX): > 100 µM (inactive)
GI50 (K562): 36.6 µM (inactive)
GI50 (KM12): > 100 µM (inactive)
GI50 (OVCAR-4): 17.2 µM (inactive)
GI50 (HOP-18): 19.4 µM (inactive)
GI50 (IGROV-1): 27.7 µM (inactive)
GI50 (HT-29): > 100 µM (inactive)
GI50 (SF-268): 34.7 µM (inactive)
GI50 (HOP-92): 17.5 µM (inactive)
GI50 (SF-295): > 100 µM (inactive)
GI50 (SK-MEL-2): 30.3 µM (inactive)
GI50 (UO-31): 38.7 µM (inactive)
GI50 (M14): 72.6 µM (inactive)
GI50 (MOLT-4): 34.1 µM (inactive)
GI50 (786-0): 33 µM (inactive)
GI50 (SK-MEL-28): 40.3 µM (inactive)
GI50 (NCI-H522): 20 µM (inactive)
GI50 (CCRF-CEM): 35.6 µM (inactive)
GI50 (HOP-62): 47.8 µM (inactive)
GI50 (A549): > 100 µM (inactive)
GI50 (DMS-273): > 100 µM (inactive)
GI50 (DLD-1): > 100 µM (inactive)
GI50 (RXF 393): 25.8 µM (inactive)
GI50 (SNB-78): 35.1 µM (inactive)
GI50 (OVCAR-3): 87.3 µM (inactive)
GI50 (NCI-H460): > 100 µM (inactive)
GI50 (SW-620): > 100 µM (inactive)
